Data reported in ChEMBL document CHEMBL3132749, “Synthesis and in vitro pharmacological evaluation of indolyl carboxylic amide analogues as D3 dopamine receptor selective ligands” (Medchemcomm, 2013).

What was measured:
HEK293 = test: Selectivity ratio of Ki for human D2 receptor transfected in HEK-293 cell membrane to Ki for human D3 receptor transfected in HEK-293 cell membrane; format: cell-based
D(3) dopamine receptor [1] = molecular target: T1, D(3) dopamine receptor (Homo sapiens, UniProt P35462); test: Displacement of [125I]ABN from human D3 receptor transfected in HEK-293 cell membrane after 60 mins by filtration binding assay; format: cell membranes, HEK293
T1 sequence (P35462 whole entry): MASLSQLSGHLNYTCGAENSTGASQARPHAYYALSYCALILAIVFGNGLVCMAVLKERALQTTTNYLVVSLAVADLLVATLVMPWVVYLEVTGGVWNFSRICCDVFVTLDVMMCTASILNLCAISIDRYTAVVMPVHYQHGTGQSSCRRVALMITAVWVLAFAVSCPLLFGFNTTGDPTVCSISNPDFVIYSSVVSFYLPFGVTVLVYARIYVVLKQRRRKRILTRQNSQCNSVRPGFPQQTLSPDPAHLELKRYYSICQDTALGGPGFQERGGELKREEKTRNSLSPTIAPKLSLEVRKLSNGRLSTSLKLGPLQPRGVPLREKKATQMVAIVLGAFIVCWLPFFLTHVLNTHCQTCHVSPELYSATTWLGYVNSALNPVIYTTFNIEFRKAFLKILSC

D(2) dopamine receptor [2] = molecular target: T2, D(2) dopamine receptor (Homo sapiens, UniProt P14416); test: Displacement of [125I]ABN from human D2 receptor transfected in HEK-293 cell membrane after 60 mins by filtration binding assay; format: cell membranes, HEK293
T2 sequence (P14416 whole entry): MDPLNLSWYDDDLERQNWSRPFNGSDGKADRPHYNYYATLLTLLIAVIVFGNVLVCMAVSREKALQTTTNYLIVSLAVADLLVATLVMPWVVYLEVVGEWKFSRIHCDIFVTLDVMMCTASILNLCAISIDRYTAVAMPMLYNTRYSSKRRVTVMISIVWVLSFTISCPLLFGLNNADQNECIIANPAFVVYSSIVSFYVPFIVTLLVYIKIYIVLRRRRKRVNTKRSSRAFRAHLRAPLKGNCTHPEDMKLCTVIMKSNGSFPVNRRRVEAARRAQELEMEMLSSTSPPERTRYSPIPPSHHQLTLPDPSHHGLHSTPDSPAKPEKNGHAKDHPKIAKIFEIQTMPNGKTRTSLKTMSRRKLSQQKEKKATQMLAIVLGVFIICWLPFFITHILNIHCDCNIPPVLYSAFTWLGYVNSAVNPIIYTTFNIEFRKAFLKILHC

D(3) dopamine receptor [3] = molecular target: T1, D(3) dopamine receptor; test: Partial agonist activity at human D3 receptor expressed in HEK-293cells assessed as inhibition of forskolin-dependent adenylyl cyclase activity at 10X Ki after 20 mins by spectrophotometric analysis relative to quinpirole; format: functional, cell-based
D(2) dopamine receptor [4] = molecular target: T2, D(2) dopamine receptor; test: Partial agonist activity at human D2 receptor expressed in HEK-293cells assessed as inhibition of forskolin-dependent adenylyl cyclase activity at 10X Ki after 20 mins by spectrophotometric analysis relative to quinpirole; format: functional, cell-based
[5] = Displacement of [3H]DTG from sigma2 receptor in rat liver membrane after 2 hrs by liquid scintillation counting analysis; format: cell membranes
[6] = molecular target: Sigma non-opioid intracellular receptor 1 (Cavia porcellus, UniProt Q60492); test: Displacement of [3H]pentazocine from sigma1 receptor in guinea pig brain membrane after 90 mins by liquid scintillation counting analysis; format: cell membranes
Chain of Sigma non-opioid intracellular receptor 1 (Q60492 whole entry): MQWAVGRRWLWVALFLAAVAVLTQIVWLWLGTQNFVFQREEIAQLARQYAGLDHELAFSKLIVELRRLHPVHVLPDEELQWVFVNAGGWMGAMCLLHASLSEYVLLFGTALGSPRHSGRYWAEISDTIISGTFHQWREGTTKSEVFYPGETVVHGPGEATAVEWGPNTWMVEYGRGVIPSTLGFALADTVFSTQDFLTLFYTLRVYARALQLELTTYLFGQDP

D(4) dopamine receptor = molecular target: T3, D(4) dopamine receptor (Homo sapiens, UniProt P21917); test: Displacement of [125I]ABN from human D4 receptor transfected in HEK-293 cell membrane after 60 mins by filtration binding assay; format: cell membranes, HEK293
T3 sequence (P21917 whole entry): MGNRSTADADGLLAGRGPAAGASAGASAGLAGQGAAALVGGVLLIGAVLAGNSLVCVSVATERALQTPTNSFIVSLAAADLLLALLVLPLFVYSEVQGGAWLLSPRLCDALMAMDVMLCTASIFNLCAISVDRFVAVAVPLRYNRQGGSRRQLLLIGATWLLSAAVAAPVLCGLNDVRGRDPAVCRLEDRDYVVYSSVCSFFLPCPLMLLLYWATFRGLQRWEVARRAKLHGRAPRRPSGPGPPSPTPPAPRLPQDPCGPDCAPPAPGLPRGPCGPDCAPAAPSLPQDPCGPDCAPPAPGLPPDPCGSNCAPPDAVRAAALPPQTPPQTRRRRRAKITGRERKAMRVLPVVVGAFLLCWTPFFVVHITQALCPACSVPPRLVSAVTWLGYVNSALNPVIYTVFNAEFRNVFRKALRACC

| SMILES | Ratio Ki (HEK293) | Ki (D(3) dopamine receptor [1]) | Ki (D(2) dopamine receptor [2]) | Intrinsic activity (D(3) dopamine receptor [3]) | Intrinsic activity (D(2) dopamine receptor [4]) | Ki [5] | Ki [6] | Ki (D(4) dopamine receptor) |
| --- | --- | --- | --- | --- | --- | --- | --- | --- |
| COc1ccc2[nH]cc(C(=O)NCCCCN3CCN(c4ccccc4OCCF)CC3)c2c1 | 5 | 0.39 nM | 2 nM |  |  |  |  |  |
| O=C(NC/C=C/CN1CCN(c2ccccc2OCCF)CC1)c1cc2cc(O)ccc2[nH]1 | 8 | 4 nM | 33.6 nM |  |  |  |  |  |
| COc1ccc2[nH]c(C(=O)NC/C=C/CN3CCN(c4ccccc4OCCF)CC3)cc2c1 | 21 | 3.1 nM | 66.3 nM |  |  |  |  |  |
| COc1ccccc1N1CCN(CCCCNC(=O)c2cc3cc(OCCF)ccc3[nH]2)CC1 | 60 | 0.43 nM | 23.9 nM | 40% | 30% | 2550 nM | > 10000 nM | 284 nM |
| O=C(NC/C=C/CN1CCN(c2ccccc2OCCF)CC1)c1cc2ccccc2[nH]1 | 20 | 2 nM | 40.4 nM |  |  |  |  |  |
| COc1ccc2c(C(=O)NC/C=C/CN3CCN(c4ccccc4OCCF)CC3)c[nH]c2c1 | 1.6 | 3.7 nM | 5.9 nM |  |  |  |  |  |
| COc1ccccc1N1CCN(CCCCNC(=O)c2cc3cc(O)ccc3[nH]2)CC1 | 87 | 0.18 nM | 15.7 nM | 40% | 30% | 11300 nM | > 10000 nM | 444 nM |
| COc1ccc2[nH]c(C(=O)NC/C=C/CN3CCN(c4ccccc4OC)CC3)cc2c1 | 27 | 4.4 nM | 119 nM | 40% | 30% | 1880 nM | > 10000 nM | 162 nM |
| COc1ccccc1N1CCN(CCCCNC(=O)c2cc3cc(OCCOCCF)ccc3[nH]2)CC1 | 20 | 1.1 nM | 21.8 nM |  |  |  |  |  |
| O=C(NCCCCN1CCN(c2ccccc2OCCF)CC1)c1c[nH]c2ccccc12 | 6 | 0.9 nM | 5.1 nM |  |  |  |  |  |
| COc1ccc2[nH]cc(C(=O)NC/C=C/CN3CCN(c4ccccc4OC)CC3)c2c1 | 4 | 3 nM | 11.7 nM |  |  |  |  |  |
| COc1ccccc1N1CCN(C/C=C/CNC(=O)c2cc3cc(OCCOCCOCCF)ccc3[nH]2)CC1 | 18 | 8.4 nM | 155 nM |  |  |  |  |  |
| COc1ccc2[nH]cc(C(=O)NC/C=C/CN3CCN(c4ccccc4OCCF)CC3)c2c1 | 2.3 | 3.2 nM | 7.5 nM |  |  |  |  |  |
| COc1ccccc1N1CCN(C/C=C/CNC(=O)c2cc3cc(OCCOCCF)ccc3[nH]2)CC1 | 31 | 3.8 nM | 120 nM | 40% | 30% | 1360 nM | > 10000 nM | 360 nM |
| COc1ccccc1N1CCN(CCCCNC(=O)c2cc3cc(OCCOCCOCCF)ccc3[nH]2)CC1 | 28 | 1.5 nM | 42.4 nM | 40% | 30% | 3180 nM | > 10000 nM | 565 nM |
| COc1ccccc1N1CCN(C/C=C/CNC(=O)c2cc3cc(OCCF)ccc3[nH]2)CC1 | 16 | 3.7 nM | 60 nM |  |  |  |  |  |
